Reference: US8952024B2, “Herbicidal pyrimidone derivatives” (E I du Pont de Nemours and Company, priority 2009, dated 2015)

Experiments:
Format in all cases: in vivo
[1] = test system: umbrella sedge (Cyperus difformis); experiment: Test B flooded paddy test; conditions: for Plant response rating, Flood, Sedge, Umbrella: 250 g ai/ha, flooded paddy test, visual rating on 0 to 100 scale (0 no effect, 100 complete control) after 13 to 15 days; for Plant response rating, Sedge, Umbrella: Flood (flooded paddy test), 13 to 15 days; for Sedge, Umbrella plant response rating: Flood, 31 g ai/ha, scale 0 to 100 (0 no effect, 100 complete control)
Summary of the method: (§1)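 Ratings are visual, 0–100 (100 = complete control), taken versus untreated controls 13 to 15 days after treatment in the greenhouse. Compound went straight into paddy water held 3 cm above soil, applied to 2-leaf-stage plants of four species.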

[2] = test system: ducksalad (Heteranthera limosa); experiment: Test B flooded paddy test; conditions: for Plant response rating, Flood, Ducksalad: 250 g ai/ha, flooded paddy test, visual rating on 0 to 100 scale (0 no effect, 100 complete control) after 13 to 15 days; for Plant response rating, Ducksalad: Flood (flooded paddy test), 13 to 15 days; for Ducksalad plant response rating: Flood, 31 g ai/ha, scale 0 to 100 (0 no effect, 100 complete control)
Summary of the method: as §1

[3] = test system: barnyardgrass (Echinochloa crus-galli); experiment: Test B flooded paddy test; conditions: for Plant response rating, Flood, Barnyardgrass: 250 g ai/ha, flooded paddy test, visual rating on 0 to 100 scale (0 no effect, 100 complete control) after 13 to 15 days; for Plant response rating, Barnyardgrass: Flood (flooded paddy test), 13 to 15 days; for Barnyardgrass plant response rating: Flood, 31 g ai/ha, scale 0 to 100 (0 no effect, 100 complete control)
Summary of the method: as §1

[4] = test system: rice (Oryza sativa); experiment: Test B flooded paddy test; conditions: for Plant response rating, Flood, Rice: 250 g ai/ha, flooded paddy test, visual rating on 0 to 100 scale (0 no effect, 100 complete control) after 13 to 15 days; for Plant response rating, Rice: Flood (flooded paddy test), 13 to 15 days; for Rice plant response rating: Flood, 31 g ai/ha, scale 0 to 100 (0 no effect, 100 complete control)
Summary of the method: as §1

[5] = test system: large crabgrass (Digitaria sanguinalis); experiment: Test A pre-/postemergence plant response
Summary of the method: (§2)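 Injury was scored visually after roughly ten days against untreated controls, 0 = no effect, 100 = complete control. Test chemicals in a surfactant-containing non-phytotoxic solvent were sprayed either onto soil preemergence or onto one- to two-leaf, 2–10 cm plants postemergence.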

[6] = test system: morningglory (Ipomoea spp.); experiment: Test A pre-/postemergence plant response
Summary of the method: as §2

[7] = test system: barnyardgrass (Echinochloa crus-galli); experiment: Test A pre-/postemergence plant response
Summary of the method: as §2

[8] = test system: pigweed (Amaranthus retroflexus); experiment: Test A pre-/postemergence plant response
Summary of the method: as §2

[9] = test system: giant foxtail (Setaria faberii); experiment: Test A pre-/postemergence plant response
Summary of the method: as §2

[10] = test system: velvetleaf (Abutilon theophrasti); experiment: Test A pre-/postemergence plant response
Summary of the method: as §2

[11] = test system: corn (Zea mays); experiment: Test A pre-/postemergence plant response
Summary of the method: as §2

[12] = test system: wheat (Triticum aestivum); experiment: Test A pre-/postemergence plant response
Summary of the method: as §2

[13] = 62 g ai/ha, scale of 0 to 100 where 0 is no effect and 100 is complete control
[14] = 125 g ai/ha, scale 0 to 100, 0 is no effect, 100 is complete control
[15] = Postemergence, 125 g ai/ha, 0 to 100 scale where 0 is no effect and 100 is complete control
[16] = Postemergence, 500 g ai/ha, 0 to 100 scale, 0 = no effect, 100 = complete control, approx. ten days
[17] = Preemergence, 125 g ai/ha, 0 to 100 scale, 0 = no effect, 100 = complete control
[18] = Preemergence, 500 g ai/ha, visual injury, 0 to 100 scale (0 no effect, 100 complete control), approx. ten days

Structure (SMILES): O=C1CCCC(O)=C1C(=O)c1cnc(-c2ccccc2)n(C2CCOCC2)c1=O [Compound 129]
- Plant response rating, Flood, Sedge, Umbrella [1]: 60
- Plant response rating, Sedge, Umbrella [1, 13]: 0
- Plant response rating, Sedge, Umbrella [1, 14]: 60
- Sedge, Umbrella plant response rating [1]: 0
- Plant response rating, Flood, Ducksalad [2]: 100
- Plant response rating, Ducksalad [2, 13]: 90
- Plant response rating, Ducksalad [2, 14]: 90
- Ducksalad plant response rating [2]: 0
- Plant response rating, Flood, Barnyardgrass [3]: 60
- Plant response rating, Barnyardgrass [3, 13]: 0
- Plant response rating, Barnyardgrass [3, 14]: 10
- Barnyardgrass plant response rating [3]: 0
- Plant response rating, Flood, Rice [4]: 30
- Plant response rating, Rice [4, 13]: 0
- Plant response rating, Rice [4, 14]: 0
- Rice plant response rating [4]: 0
- Plant response rating, Crabgrass, Large [5, 15]: 90
- Plant response rating, Crabgrass, Large [5, 16]: 90
- Plant response rating, Crabgrass, Large [5, 17]: 70
- Plant response rating, Crabgrass, Large [5, 18]: 90
- Plant response rating, Morningglory [6, 15]: 100
- Plant response rating, Morningglory [6, 16]: 100
- Plant response rating, Morningglory [6, 18]: 90
- Plant response rating, Barnyardgrass [7, 15]: 90
- Plant response rating, Barnyardgrass [7, 16]: 100
- Plant response rating, Barnyardgrass [7, 17]: 30
- Plant response rating, Barnyardgrass [7, 18]: 100
- Plant response rating, Pigweed [8, 15]: 100
- Plant response rating, Pigweed [8, 16]: 100
- Plant response rating, Pigweed [8, 17]: 100
- Plant response rating, Pigweed [8, 18]: 100
- Plant response rating, Foxtail, Giant [9, 15]: 90
- Plant response rating, Foxtail, Giant [9, 16]: 90
- Plant response rating, Foxtail, Giant [9, 17]: 40
- Plant response rating, Foxtail, Giant [9, 18]: 80
- Plant response rating, Velvetleaf [10, 15]: 100
- Plant response rating, Velvetleaf [10, 16]: 100
- Plant response rating, Velvetleaf [10, 17]: 80
- Plant response rating, Velvetleaf [10, 18]: 90
- Plant response rating, Corn [11, 15]: 20
- Plant response rating, Corn [11, 16]: 50
- Plant response rating, Corn [11, 17]: 0
- Plant response rating, Corn [11, 18]: 0
- Plant response rating, Wheat [12, 15]: 0
- Plant response rating, Wheat [12, 16]: 20
- Plant response rating, Wheat [12, 17]: 0
- Plant response rating, Wheat [12, 18]: 0

Structure (SMILES): O=C1CCCC(O)=C1C(=O)c1cnc(-c2ccccc2)n(C2CCCCCC2)c1=O [Compound 130]
- Plant response rating, Flood, Sedge, Umbrella [1]: 100
- Plant response rating, Sedge, Umbrella [1, 13]: 60
- Plant response rating, Sedge, Umbrella [1, 14]: 75
- Sedge, Umbrella plant response rating [1]: 40
- Plant response rating, Flood, Ducksalad [2]: 100
- Plant response rating, Ducksalad [2, 13]: 80
- Plant response rating, Ducksalad [2, 14]: 80
- Ducksalad plant response rating [2]: 60
- Plant response rating, Flood, Barnyardgrass [3]: 85
- Plant response rating, Barnyardgrass [3, 13]: 0
- Plant response rating, Barnyardgrass [3, 14]: 0
- Barnyardgrass plant response rating [3]: 0
- Plant response rating, Flood, Rice [4]: 25
- Plant response rating, Rice [4, 13]: 0
- Plant response rating, Rice [4, 14]: 0
- Rice plant response rating [4]: 0
- Plant response rating, Crabgrass, Large [5, 15]: 70
- Plant response rating, Crabgrass, Large [5, 16]: 100
- Plant response rating, Crabgrass, Large [5, 17]: 40
- Plant response rating, Crabgrass, Large [5, 18]: 100
- Plant response rating, Morningglory [6, 15]: 100
- Plant response rating, Morningglory [6, 16]: 100
- Plant response rating, Morningglory [6, 17]: 10
- Plant response rating, Morningglory [6, 18]: 80
- Plant response rating, Barnyardgrass [7, 15]: 100
- Plant response rating, Barnyardgrass [7, 16]: 100
- Plant response rating, Barnyardgrass [7, 17]: 20
- Plant response rating, Barnyardgrass [7, 18]: 90
- Plant response rating, Pigweed [8, 15]: 100
- Plant response rating, Pigweed [8, 16]: 100
- Plant response rating, Pigweed [8, 17]: 90
- Plant response rating, Pigweed [8, 18]: 100
- Plant response rating, Foxtail, Giant [9, 15]: 80
- Plant response rating, Foxtail, Giant [9, 16]: 90
- Plant response rating, Foxtail, Giant [9, 17]: 20
- Plant response rating, Foxtail, Giant [9, 18]: 90
- Plant response rating, Velvetleaf [10, 15]: 100
- Plant response rating, Velvetleaf [10, 16]: 100
- Plant response rating, Velvetleaf [10, 17]: 80
- Plant response rating, Velvetleaf [10, 18]: 90
- Plant response rating, Corn [11, 15]: 10
- Plant response rating, Corn [11, 16]: 50
- Plant response rating, Corn [11, 17]: 20
- Plant response rating, Corn [11, 18]: 30
- Plant response rating, Wheat [12, 15]: 0
- Plant response rating, Wheat [12, 16]: 30
- Plant response rating, Wheat [12, 17]: 0
- Plant response rating, Wheat [12, 18]: 0
